Tested on: Genes belonging to other category
Test: DNA chip mRNA expression in yeast, genes belonging to other category (Table 9)
Assay type: cell-based, Saccharomyces cerevisiae S288C
Outline: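 Cells were grown at 25° C. in YPD, treated at logarithmic phase for 2 h with a chemical at a concentration inhibiting growth but not causing death, and compared with untreated cultures. Labeled cDNA was hybridized to a DNA chip carrying all yeast genes, and the expression ratio was taken from scanner fluorescence.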

## Na2As [(1)]
Yeast gene YKL008C
  The level of expressed mRNA in the presence of chemical substance/The level of expressed mRNA in the absence of chemical substance: 1.2
Yeast gene YKL013C
  The level of expressed mRNA in the presence of chemical substance/The level of expressed mRNA in the absence of chemical substance: 1.4
Yeast gene YKL039W
  The level of expressed mRNA in the presence of chemical substance/The level of expressed mRNA in the absence of chemical substance: 0.8
Yeast gene YKL041W
  The level of expressed mRNA in the presence of chemical substance/The level of expressed mRNA in the absence of chemical substance: 1.2
Yeast gene YKL096W
  The level of expressed mRNA in the presence of chemical substance/The level of expressed mRNA in the absence of chemical substance: 1.4
Yeast gene YKL139W
  The level of expressed mRNA in the presence of chemical substance/The level of expressed mRNA in the absence of chemical substance: 0.9
Yeast gene YKL165C
  The level of expressed mRNA in the presence of chemical substance/The level of expressed mRNA in the absence of chemical substance: 0.5
Yeast gene YKL193C
  The level of expressed mRNA in the presence of chemical substance/The level of expressed mRNA in the absence of chemical substance: 1.3
Yeast gene YLR120C
  The level of expressed mRNA in the presence of chemical substance/The level of expressed mRNA in the absence of chemical substance: 1.2
Yeast gene YLR136C
  The level of expressed mRNA in the presence of chemical substance/The level of expressed mRNA in the absence of chemical substance: 1.3
Yeast gene YLR178C
  The level of expressed mRNA in the presence of chemical substance/The level of expressed mRNA in the absence of chemical substance: 1.7
Yeast gene YLR250W
  The level of expressed mRNA in the presence of chemical substance/The level of expressed mRNA in the absence of chemical substance: 1.5
Yeast gene YLR327C
  The level of expressed mRNA in the presence of chemical substance/The level of expressed mRNA in the absence of chemical substance: 5.5
Yeast gene YLR356W
  The level of expressed mRNA in the presence of chemical substance/The level of expressed mRNA in the absence of chemical substance: 1.0
Yeast gene YLR362W
  The level of expressed mRNA in the presence of chemical substance/The level of expressed mRNA in the absence of chemical substance: 1.1
Yeast gene YLR429W
  The level of expressed mRNA in the presence of chemical substance/The level of expressed mRNA in the absence of chemical substance: 0.7
Yeast gene YMR004W
  The level of expressed mRNA in the presence of chemical substance/The level of expressed mRNA in the absence of chemical substance: 0.9
Yeast gene YMR094W
  The level of expressed mRNA in the presence of chemical substance/The level of expressed mRNA in the absence of chemical substance: 1.0
Yeast gene YMR104C
  The level of expressed mRNA in the presence of chemical substance/The level of expressed mRNA in the absence of chemical substance: 1.9
Yeast gene YMR219W
  The level of expressed mRNA in the presence of chemical substance/The level of expressed mRNA in the absence of chemical substance: 0.7
Yeast gene YMR226C
  The level of expressed mRNA in the presence of chemical substance/The level of expressed mRNA in the absence of chemical substance: 1.1
Yeast gene YMR275C
  The level of expressed mRNA in the presence of chemical substance/The level of expressed mRNA in the absence of chemical substance: 0.7
Yeast gene YMR276W
  The level of expressed mRNA in the presence of chemical substance/The level of expressed mRNA in the absence of chemical substance: 0.6
Yeast gene YNL006W
  The level of expressed mRNA in the presence of chemical substance/The level of expressed mRNA in the absence of chemical substance: 1.1
Yeast gene YNL007C
  The level of expressed mRNA in the presence of chemical substance/The level of expressed mRNA in the absence of chemical substance: 0.7
Yeast gene YNL093W
  The level of expressed mRNA in the presence of chemical substance/The level of expressed mRNA in the absence of chemical substance: 2.1
Yeast gene YNL333W
  The level of expressed mRNA in the presence of chemical substance/The level of expressed mRNA in the absence of chemical substance: 1.0
Yeast gene YNR010W
  The level of expressed mRNA in the presence of chemical substance/The level of expressed mRNA in the absence of chemical substance: 1.3
Yeast gene YNR069C
  The level of expressed mRNA in the presence of chemical substance/The level of expressed mRNA in the absence of chemical substance: 1.5
Yeast gene YOL013C
  The level of expressed mRNA in the presence of chemical substance/The level of expressed mRNA in the absence of chemical substance: 0.9
Yeast gene YOL164W
  The level of expressed mRNA in the presence of chemical substance/The level of expressed mRNA in the absence of chemical substance: 0.9
Yeast gene YOR036W
  The level of expressed mRNA in the presence of chemical substance/The level of expressed mRNA in the absence of chemical substance: 1.8
Yeast gene YOR117W
  The level of expressed mRNA in the presence of chemical substance/The level of expressed mRNA in the absence of chemical substance: 0.8
Yeast gene YOR124C
  The level of expressed mRNA in the presence of chemical substance/The level of expressed mRNA in the absence of chemical substance: 0.6
Yeast gene YOR132W
  The level of expressed mRNA in the presence of chemical substance/The level of expressed mRNA in the absence of chemical substance: 0.9
Yeast gene YOR157C
  The level of expressed mRNA in the presence of chemical substance/The level of expressed mRNA in the absence of chemical substance: 1.0
Yeast gene YOR181W
  The level of expressed mRNA in the presence of chemical substance/The level of expressed mRNA in the absence of chemical substance: 1.0
Yeast gene YOR185C
  The level of expressed mRNA in the presence of chemical substance/The level of expressed mRNA in the absence of chemical substance: 1.1
Yeast gene YOR198C
  The level of expressed mRNA in the presence of chemical substance/The level of expressed mRNA in the absence of chemical substance: 1.0
Yeast gene YOR259C
  The level of expressed mRNA in the presence of chemical substance/The level of expressed mRNA in the absence of chemical substance: 0.8
Yeast gene YOR261C
  The level of expressed mRNA in the presence of chemical substance/The level of expressed mRNA in the absence of chemical substance: 1.0
Yeast gene YOR288C
  The level of expressed mRNA in the presence of chemical substance/The level of expressed mRNA in the absence of chemical substance: 0.9
Yeast gene YOR355W
  The level of expressed mRNA in the presence of chemical substance/The level of expressed mRNA in the absence of chemical substance: 0.7
Yeast gene YOR383C
  The level of expressed mRNA in the presence of chemical substance/The level of expressed mRNA in the absence of chemical substance: 0.9
Yeast gene YPL089C
  The level of expressed mRNA in the presence of chemical substance/The level of expressed mRNA in the absence of chemical substance: 1.2
Yeast gene YPL109C
  The level of expressed mRNA in the presence of chemical substance/The level of expressed mRNA in the absence of chemical substance: 1.1
Yeast gene YPL149W
  The level of expressed mRNA in the presence of chemical substance/The level of expressed mRNA in the absence of chemical substance: 1.5
Yeast gene YPL154C
  The level of expressed mRNA in the presence of chemical substance/The level of expressed mRNA in the absence of chemical substance: 0.7
Yeast gene YPR103W
  The level of expressed mRNA in the presence of chemical substance/The level of expressed mRNA in the absence of chemical substance: 0.7
Yeast gene YPR108W
  The level of expressed mRNA in the presence of chemical substance/The level of expressed mRNA in the absence of chemical substance: 0.8

Source: patent publication US8192962B2, “Processes for detecting toxic substances” (Daikin Industries, Ltd., priority 2001, dated 2012)
